Reference: patent US20040033963A1, “Urea composition” (priority 2002, published 2004)

Test: Antioxidant screening: prevention or retardation of air oxidation of anthralin, hydroquinone or banana peel
Settings: screening methods: air oxidation of anthralin
Experimental: The antioxidant property of some hydroxyacids, polyhydroxy acids and lactones are determined as follows. Oxidation by definition is removal of electrons or addition of oxygen. An antioxidant can be defined as a substance capable of preventing or inhibiting oxidation, or capable of disposing, scavenging, or suppressing formation or actions of peroxide, superoxide or free radicals. We have developed three simple assays to determine if a substance is an antioxidant or not. The antioxidant property is determined by using one of the following screening methods: prevention or retardation of air oxidation of (a) anthralin, (b) hydroquinone, or (c) banana peel. A freshly prepared anthralin solution or cream is bright yellow, and an air oxidized one is brownish or black. A hydroquinone solution or cream is colorless or white color, and an air-oxidized one is brownish or black. A freshly peeled banana peel is light yellow in color, and an oxidized one ranges in color from tan, dark tan, brown to brownish black.
Known antioxidants such as vitamin C and N-acetylcysteine may be used as the positive control in these screening methods.

Structure (SMILES) | antioxidant property
O=C1O[C@H]([C@@H](O)CO)C(O)=C1O [ascorbic acid] | antioxidants
O=C(O)CC(O)(CC(=O)O)C(=O)O [citric acid] | antioxidants
O=C1O[C@@H]([C@H](O)CO)[C@H](O)[C@H]1O [galactonolactone] | antioxidants
O=C(O)[C@@H](O)[C@H]1OC(=O)[C@H](O)[C@H]1O [glucarolactone] | antioxidants
O=C1O[C@@H]([C@H](O)[C@H](O)CO)[C@@H](O)C1O (stereo partly shown) [glucoheptonolactone] | antioxidants
O=C(O)[C@H](O)[C@@H](O)[C@H](O)[C@H](O)CO [gluconic acid] | antioxidants
O=C1O[C@H](CO)[C@@H](O)[C@H](O)[C@H]1O [gluconolactone] | antioxidants
O=C[C@H](O)[C@H]1OC(=O)[C@@H](O)[C@H]1O [glucuronolactone] | antioxidants
O=C1O[C@H]([C@H](O)CO)C(O)=C1O [isoascorbic acid] | antioxidants
O=C(O)CC(C(=O)O)C(O)C(=O)O (stereo not shown) [isocitric acid] | antioxidants
O=C(O)CC(O)C(=O)O (stereo not shown) [malic acid] | antioxidants
O=C1O[C@H](CO)[C@@H](O)[C@H]1O [ribonolactone] | antioxidants
O=C(O)C(O)C(=O)O [tartronic acid] | antioxidants
